Consider twelve compounds from ChEMBL document CHEMBL3046395, “Synthesis and pharmacological investigation of novel 3-(benzyl)-2-substituted amino-3H-quinazolin-4-ones as analgesic and anti-inflammatory agents” (Med Chem Res, 2008).

Data set [1] deals with Rattus norvegicus. Description: Anti-inflammatory activity in Rattus norvegicus (rat) assessed as inhibition of carrageenan-induced paw edema at 10 mg/kg, po measured at 2 hr post carrageenan-challenge (reference value: 5.7+/- 0.32%). The format is functional. In general terms: The carrageenan paw model is a standard test of acute inflammation.
Data set [2] concerns Mus musculus. Description: Analgesic activity in Mus musculus Wistar albino (mouse) at 20 mg/kg, po after 1 hr by tail-flick test (reference value: 6 +/- 0.49%). The format is functional. (In general: Thermal pain tests record how soon the animal reacts.)
Data set [3] has as its system Rattus norvegicus. Kind of data set: Anti-inflammatory activity in Rattus norvegicus (rat) assessed as inhibition of carrageenan-induced paw edema at 20 mg/kg, po measured at 30 min post carrageenan-challenge (reference value: 5.1 +/- 0.29%). The format is functional. The note with it: 0.5 h.
Data set [4] deals with Rattus norvegicus. Description: Anti-inflammatory activity in Rattus norvegicus (rat) assessed as inhibition of carrageenan-induced paw edema at 20 mg/kg, po measured at 3 hr post carrageenan-challenge (reference value: 3.2 +/- 0.93%). The format is functional.
Data set [5] relates to Rattus norvegicus. Kind of data set: Gastrointestinal toxicity in Rattus norvegicus Wistar albino (rat) assessed as ulcer index at 20 mg/kg, ip administered QD for 3 days measured on day 4 (reference value: 0.15 +/- 0.32). It counts as organism-based. More on the design: dose 20 mg/kg, route intraperitoneal. The note with it: in vivo, 72 h.
For data set [6], the system named is Rattus norvegicus. Kind of data set: Anti-inflammatory activity in Rattus norvegicus (rat) assessed as inhibition of carrageenan-induced paw edema at 10 mg/kg, po measured at 3 hr post carrageenan-challenge (reference value: 3.2 +/- 0.93%). The format is functional.
Data set [7] deals with Mus musculus. Kind of data set: Analgesic activity in Mus musculus Wistar albino (mouse) at 10 mg/kg, po after 30 min by tail-flick test (reference value: 2 +/- 0.35%). It counts as functional.
The test system of data set [8] is Mus musculus. Description: Analgesic activity in Mus musculus Wistar albino (mouse) at 10 mg/kg, po after 2 hr by tail-flick test (reference value: 4 +/- 0.59%). The format is functional.
The subject of data set [9] is Rattus norvegicus. Description: Anti-inflammatory activity in Rattus norvegicus (rat) assessed as inhibition of carrageenan-induced paw edema at 10 mg/kg, po measured at 30 min post carrageenan-challenge (reference value: 5.1 +/- 0.29%). The format is functional. The note with it: 0.5 h.
The subject of data set [10] is Mus musculus. Description: Analgesic activity in Mus musculus Wistar albino (mouse) at 10 mg/kg, po after 1 hr by tail-flick test (reference value: 6 +/- 0.49%). It counts as functional.
Data set [11] deals with Mus musculus. Kind of data set: Analgesic activity in Mus musculus Wistar albino (mouse) at 20 mg/kg, po after 30 min by tail-flick test (reference value: 2 +/- 0.35%). The format is functional.
Data set [12] deals with Mus musculus. Kind of data set: Analgesic activity in Mus musculus Wistar albino (mouse) at 10 mg/kg, po after 3 hr by tail-flick test (reference value: 4 +/- 0.91%). It counts as functional.
For data set [13], the system named is Mus musculus. Description: Analgesic activity in Mus musculus Wistar albino (mouse) at 20 mg/kg, po after 3 hr by tail-flick test (reference value: 4 +/- 0.91%). It counts as functional.
The subject of data set [14] is Rattus norvegicus. Description: Anti-inflammatory activity in Rattus norvegicus (rat) assessed as inhibition of carrageenan-induced paw edema at 20 mg/kg, po measured at 1 hr post carrageenan-challenge (reference value: 6.1 +/- 0.27%). The format is functional.
The test system of data set [15] is Rattus norvegicus. Description: Anti-inflammatory activity in Rattus norvegicus (rat) assessed as inhibition of carrageenan-induced paw edema at 10 mg/kg, po measured at 1 hr post carrageenan-challenge (reference value: 6.1 +/- 0.27%). It counts as functional.
The test system of data set [16] is Rattus norvegicus. Description: Anti-inflammatory activity in Rattus norvegicus (rat) assessed as inhibition of carrageenan-induced paw edema at 20 mg/kg, po measured at 2 hr post carrageenan-challenge (reference value: 5.7+/- 0.32%). The format is functional.
In data set [17] the test system is Mus musculus. Kind of data set: Analgesic activity in Mus musculus Wistar albino (mouse) at 20 mg/kg, po after 2 hr by tail-flick test (reference value: 4 +/- 0.59%). The format is functional.

A word on the inhibition in vivo: it is the percentage by which the read-out fell short of the control.

As for `O=c1c2ccccc2nc(NN=C2CCCCC2)n1Cc1ccccc1`, the inhibition in vivo at 10 mg/kg with Rattus norvegicus [1] amounted to 45%; in the data set with Rattus norvegicus [6], 25%; in the data set on Rattus norvegicus [9] it was 36%; in the data set with Rattus norvegicus [15], 38%. Further, the Activity with Mus musculus [2] is given as 58%; in the data set with Mus musculus [7], 42%; in the data set on Mus musculus [8], 54%; with Mus musculus [10], 46%; in the data set on Mus musculus [11], 51%; with Mus musculus [12] it was 34%. In addition, the Activity in the data set on Mus musculus [13] worked out at 41%; in the data set with Mus musculus [17], 61%. The inhibition in vivo at 20 mg/kg amounted to 45% in the data set on Rattus norvegicus [3], 32% in the data set on Rattus norvegicus [4], 52% in the data set on Rattus norvegicus [14] and 58% in the data set with Rattus norvegicus [16]. In addition, the UI with Rattus norvegicus [5] stood at 0.59.
As for `C/C(=N\Nc1nc2ccccc2c(=O)n1Cc1ccccc1)c1ccccc1`, the inhibition in vivo at 10 mg/kg with Rattus norvegicus [1] is 46%; in the data set with Rattus norvegicus [6], 27%; with Rattus norvegicus [9], 40%; in the data set with Rattus norvegicus [15], 41%. The Activity with Mus musculus [2] is on record as 62%; in the data set on Mus musculus [7] it was 45%; in the data set with Mus musculus [8], 57%; with Mus musculus [10] it was 47%; with Mus musculus [11] it was 57%; with Mus musculus [12], 30%. Moreover, the Activity stood at 37% in the data set on Mus musculus [13] and 69% in the data set with Mus musculus [17]. For the same compound, the inhibition in vivo at 20 mg/kg worked out at 48% in the data set on Rattus norvegicus [3], 33% in the data set on Rattus norvegicus [4], 53% with Rattus norvegicus [14] and 58% in the data set with Rattus norvegicus [16]. Moreover, in the data set with Rattus norvegicus [5], the UI was found to be 0.6.
In the case of `O=c1c2ccccc2nc(N/N=C/c2ccccc2)n1Cc1ccccc1`, the inhibition in vivo at 10 mg/kg is 40% in the data set with Rattus norvegicus [1], 27% in the data set with Rattus norvegicus [6], 35% in the data set with Rattus norvegicus [9] and 39% with Rattus norvegicus [15]. Besides, the Activity is given as 59% with Mus musculus [2]; 45% with Mus musculus [7]; 48% in the data set on Mus musculus [8]; 48% with Mus musculus [10]; 51% in the data set with Mus musculus [11]; 31% in the data set on Mus musculus [12]. Moreover, the Activity in the data set on Mus musculus [13] is recorded as 41%; with Mus musculus [17], 59%. In addition, the inhibition in vivo at 20 mg/kg in the data set on Rattus norvegicus [3] turned out to be 41%; in the data set on Rattus norvegicus [4] it was 35%; with Rattus norvegicus [14] it was 45%; in the data set with Rattus norvegicus [16] it was 47%. Besides, the UI with Rattus norvegicus [5] stood at 0.64.
As to `Cc1nc2ccccc2c(=O)n1NC(=S)n1cccc1`, the inhibition in vivo at 10 mg/kg in the data set on Rattus norvegicus [1] worked out at 44%. For the same compound, the Activity in the data set on Mus musculus [8] is 50%; in the data set on Mus musculus [17], 65%. Moreover, the inhibition in vivo at 20 mg/kg in the data set with Rattus norvegicus [16] stood at 60%.
As for `O=c1c2ccccc2nc(N/N=C/c2ccc(Cl)cc2)n1Cc1ccccc1`, the inhibition in vivo at 10 mg/kg with Rattus norvegicus [1] was 36%; with Rattus norvegicus [6], 23%; with Rattus norvegicus [9] it was 34%; in the data set on Rattus norvegicus [15], 36%. For the same compound, the Activity in the data set on Mus musculus [2] amounted to 51%; in the data set with Mus musculus [7] it was 38%; with Mus musculus [8], 47%; with Mus musculus [10], 36%; in the data set with Mus musculus [11], 49%; in the data set on Mus musculus [12], 30%. In addition, the Activity with Mus musculus [13] is recorded as 36%; in the data set with Mus musculus [17], 54%. Moreover, the inhibition in vivo at 20 mg/kg stood at 40% in the data set on Rattus norvegicus [3], 29% in the data set on Rattus norvegicus [4], 44% in the data set with Rattus norvegicus [14] and 49% in the data set with Rattus norvegicus [16]. For the same compound, the UI with Rattus norvegicus [5] is given as 0.89.
`O=c1c2ccccc2nc(NN=C(c2ccccc2)c2ccccc2)n1Cc1ccccc1`: the inhibition in vivo at 10 mg/kg turned out to be 43% with Rattus norvegicus [1], 27% with Rattus norvegicus [6], 36% in the data set with Rattus norvegicus [9] and 41% in the data set on Rattus norvegicus [15]. The Activity with Mus musculus [2] is given as 58%; in the data set on Mus musculus [7], 46%; in the data set on Mus musculus [8], 49%; with Mus musculus [10], 49%; in the data set with Mus musculus [11] it was 55%; in the data set on Mus musculus [12], 33%. Moreover, the Activity is on record as 41% in the data set on Mus musculus [13] and 59% with Mus musculus [17]. The inhibition in vivo at 20 mg/kg with Rattus norvegicus [3] amounted to 47%; in the data set with Rattus norvegicus [4] it was 35%; with Rattus norvegicus [14], 50%; in the data set with Rattus norvegicus [16], 52%. Also, the UI in the data set on Rattus norvegicus [5] was 0.63.
`COc1ccc(/C=N/Nc2nc3ccccc3c(=O)n2Cc2ccccc2)cc1`: the inhibition in vivo at 10 mg/kg in the data set on Rattus norvegicus [1] was determined as 37%; in the data set with Rattus norvegicus [6] it was 25%; with Rattus norvegicus [9], 28%; in the data set with Rattus norvegicus [15], 30%. For the same compound, the Activity in the data set with Mus musculus [2] is recorded as 52%; in the data set on Mus musculus [7] it was 39%; in the data set on Mus musculus [8], 44%; in the data set with Mus musculus [10], 40%; in the data set with Mus musculus [11], 49%; in the data set on Mus musculus [12], 32%. In addition, the Activity with Mus musculus [13] was 37%; in the data set with Mus musculus [17] it was 56%. Further, the inhibition in vivo at 20 mg/kg in the data set on Rattus norvegicus [3] is 35%; with Rattus norvegicus [4] it was 30%; with Rattus norvegicus [14], 40%; with Rattus norvegicus [16], 44%. Further, in the data set on Rattus norvegicus [5], the UI stood at 0.83.
As to `O=C([O-])Cc1ccccc1Nc1c(Cl)cccc1Cl.[Na+]` [DICLOFENAC SODIUM], the inhibition in vivo at 10 mg/kg turned out to be 39% with Rattus norvegicus [1], 33% in the data set on Rattus norvegicus [6], 32% in the data set on Rattus norvegicus [9] and 38% in the data set on Rattus norvegicus [15]. The Activity with Mus musculus [2] amounted to 55%; with Mus musculus [7], 37%; with Mus musculus [8], 45%; with Mus musculus [10] it was 43%; in the data set on Mus musculus [11], 46%; with Mus musculus [12], 33%. Also, the Activity in the data set on Mus musculus [13] came to 39%; in the data set on Mus musculus [17], 62%. Further, the inhibition in vivo at 20 mg/kg in the data set with Rattus norvegicus [3] worked out at 45%; in the data set on Rattus norvegicus [4], 42%; in the data set on Rattus norvegicus [14] it was 52%; with Rattus norvegicus [16], 60%. Further, the UI in the data set with Rattus norvegicus [5] is given as 1.65.
As to `Cc1ccc(/C=N/Nc2nc3ccccc3c(=O)n2Cc2ccccc2)cc1`, the inhibition in vivo at 10 mg/kg was found to be 42% in the data set with Rattus norvegicus [1], 29% in the data set on Rattus norvegicus [6], 38% in the data set with Rattus norvegicus [9] and 38% with Rattus norvegicus [15]. In addition, the Activity is reported as 59% in the data set on Mus musculus [2]; 47% in the data set with Mus musculus [7]; 54% with Mus musculus [8]; 49% with Mus musculus [10]; 58% in the data set with Mus musculus [11]; 35% in the data set on Mus musculus [12]. Besides, the Activity in the data set with Mus musculus [13] is listed as 40%; in the data set on Mus musculus [17] it was 61%. Besides, the inhibition in vivo at 20 mg/kg in the data set on Rattus norvegicus [3] was 46%; in the data set on Rattus norvegicus [4] it was 38%; in the data set with Rattus norvegicus [14], 49%; in the data set with Rattus norvegicus [16], 53%. Besides, the UI in the data set with Rattus norvegicus [5] stood at 0.65.
Take `CCN(CC)C(=S)Nn1c(-c2ccccc2)nc2ccccc2c1=O`: the inhibition in vivo at 10 mg/kg with Rattus norvegicus [1] was determined as 38%. Also, the Activity came to 44% in the data set on Mus musculus [8] and 58% with Mus musculus [17]. Also, the inhibition in vivo at 20 mg/kg with Rattus norvegicus [16] was determined as 53%.
For `CC(=O)Oc1ccccc1C(=O)O` [ASPIRIN], the UI with Rattus norvegicus [5] is given as 1.73.
`CCN(CC)C(=S)Nn1c(SC)nc2ccccc2c1=O`: the inhibition in vivo at 10 mg/kg with Rattus norvegicus [1] is 40%. Besides, the results for the Activity in the data set on Mus musculus [8] and in the data set on Mus musculus [17] were 56% and 67%, respectively. The inhibition in vivo at 20 mg/kg with Rattus norvegicus [16] is 62%.
